What was measured:
[1] = system: release of soluble CD23 from RPMI 8866 cell plasma membranes; test: RPMI 8866 cell membrane CD23 cleavage activity assay; assay type: biochemical, human; conditions: RPMI 8866 plasma membranes, 37° C., sCD23 by EIA; read-out: IC50, inhibition of production of sCD23
Procedure: Procedure 1: The ability of test compounds to inhibit the release of soluble CD23 was investigated by use of the following procedure.
RPMI 8866 Cell Membrane CD23 Cleavage Activity Assay:
Plasma membranes from RPMI 8866 cells, a human Epstein-Barr virus transformed B-cell line (Sarfati et al., Immunology 60 [1987] 539–547) expressing high levels of CD23 are purified using an aqueous extraction method. Cells resuspended in homogenization buffer (20 mM HEPES pH 7.4, 150 mM NaCl, 1.5 mM MgCl2, 1 mM DTT) are broken by N2 cavitation in a Parr bomb and the plasma membrane fraction mixed with other membranes is recovered by centrifugation at 10,000×g. […]
The fractionated membranes are incubated at 37° C. for times up to 4 hrs to produce fragments of CD23 which are separated from the membrane by filtration in 0.2 micron Durapore filter plates (Millipore) after quenching the assay with a non-selecitve MMP inhibitor, e.g. 5 uM Preparation 1 from WO 95/31457 ([4-(N-Hydroxyamino)-2-(R)-isobutyl-3-(S)-(2-thiophenethiomethyl)succinyl]-(S)-phenylalanine-N-methylamide sodium salt, prepared according to the procedure described in Example 11 of WO 90/05719). sCD23 released from the membrane is determined using the EIA kit from The Binding Site (Birmingham, UK) or a similar one utilising MHM6 anti-CD23 mAb [Rowe et al., Int. […]

[2] = molecular target: T1, MMP-3 (Homo sapiens, UniProt P08254); test: General MMP inhibition assay (fluorescence quench); assay type: biochemical; conditions: inhibitor up to 100 uM
T1 construct: purchased Calbiochem
Procedure: (§1) General MMP Inhibition Assays:
(§2) Inhibition of matrix metalloprotease activity was determined using a fluorescence quench assay with appropriate substrate. For example, MMP activity was determined using MMP activated using trypsin, according to Lark et al, Connective Tissue Res. 25, 52 (1990). The MMP is incubated at room temperature in a microtitre plate in a total volume of 100 ul, containing 0.15 M Tris Cl, 15 mM CaCl2, 0.2 M NaCl, pH 7.6 (assay buffer); inhibitor at concentrations up to 100 uM, with no more than 2% DMSO final concentration, 10 uM substrate (such as SDP-3815-PI for MMP-1, Peptides International). The MMP concentration is <10 nM, and determined empirically with the appropriate substrate to give at least a 20-fold increase in fluorescence emission in 30 min. Fluorescent excitation wavelength was 355 nm, emission wavelength 400–460 nm, and data points are collected to generate slope (change in fluorescence with time). Percent inhibition for each concentration is calculated from the slope at time zero, and IC50 values from the concentration dependence. MMP-1, 2, 3, 7, 9, 13, 14 may all be assayed in the same manner, using commercially available substrates reported to be effective for each enzyme. Enzymes were obtained from Calbiochem and activated using the same trypsin method.

[3] = molecular target: T2, MMP-13 (Homo sapiens, UniProt P45452); test: General MMP inhibition assay (fluorescence quench); assay type: biochemical; conditions: inhibitor up to 100 uM
T2 construct: purchased Calbiochem
Procedure: as §1, §2

[4] = molecular target: T3, human recombinant collagenase (Homo sapiens, UniProt P03956); test: Collagenase inhibition assay; assay type: biochemical; conditions: 37° C., 18 h, 3H type 1 bovine collagen; read-out: IC50, collagenase inhibition (procedure 2)
T3 construct: made in house; host or cells: E. coli
T3 sequence (P03956 100-469): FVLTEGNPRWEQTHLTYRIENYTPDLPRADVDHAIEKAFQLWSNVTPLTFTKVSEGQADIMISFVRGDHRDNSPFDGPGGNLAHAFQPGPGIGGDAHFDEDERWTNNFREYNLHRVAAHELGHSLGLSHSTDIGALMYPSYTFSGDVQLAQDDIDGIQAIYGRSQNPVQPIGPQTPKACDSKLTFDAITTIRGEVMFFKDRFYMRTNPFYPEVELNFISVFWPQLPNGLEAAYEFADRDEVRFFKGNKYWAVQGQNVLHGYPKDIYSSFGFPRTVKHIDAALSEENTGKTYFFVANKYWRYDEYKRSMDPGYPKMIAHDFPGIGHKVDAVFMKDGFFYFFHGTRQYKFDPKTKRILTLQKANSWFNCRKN
Procedure: Procedure 2: The ability of test compounds to inhibit matrix metalloproteases was investigated using the following procedures.
Collagenase Inhibition Assay:
The potency of compounds to act as inhibitors of collagenase was determined by the method of Cawston and Barrett (Anal. Biochem. 99, 340–345, 1979), hereby incorporated by reference, whereby a 1 mM solution of the inhibitor being tested or dilutions thereof, was incubated at 37° C. for 18 h with collagen and human recombinant collagenase, from synovial fibroblasts cloned, expressed and purified from E. Coli, (buffered with 150 mM Tris, pH 7.6, containing 15 mM calcium chloride, 0.05% Brij 35, 200 mM sodium chloride and 0.02% sodium azide). The collagen was acetylated ^3H type 1 bovine collagen prepared by the method of Cawston and Murphy (methods in Enzymology 80, 711,1981) The samples were centrifuged to sediment undigested collagen and an aliquot of the radioactive supernatant removed for assay on a scintillation counter as a measure of hydrolysis. The collagenase activity in the presence of 1 mM inhibitor, or dilution thereof, was compared to activity in a control devoid of inhibitor and the results reported as that concentration effecting 50% of the collagenase (IC50).

T1 sequence (P08254 100-477, species assumed): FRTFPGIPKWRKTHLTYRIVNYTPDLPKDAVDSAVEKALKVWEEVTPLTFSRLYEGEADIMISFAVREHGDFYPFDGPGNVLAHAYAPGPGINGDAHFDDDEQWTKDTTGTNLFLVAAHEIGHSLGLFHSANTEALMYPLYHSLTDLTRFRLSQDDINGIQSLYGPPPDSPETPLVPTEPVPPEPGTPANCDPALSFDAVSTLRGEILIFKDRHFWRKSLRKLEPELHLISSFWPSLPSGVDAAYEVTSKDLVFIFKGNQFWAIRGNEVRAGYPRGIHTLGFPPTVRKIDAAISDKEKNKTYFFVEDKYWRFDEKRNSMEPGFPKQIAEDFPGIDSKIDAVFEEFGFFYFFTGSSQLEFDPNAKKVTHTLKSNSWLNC

Question: For `O=CN(O)[C@H](CS(=O)(=O)Cc1cnc2ccccc2c1)[C@H]1CCCO1` [Example 1], which IC50 [1] is on record?
Answer: 0.06 µM

Question: What about the IC50 [2] of the same compound?
Answer: > 100 µM

Question: What about the IC50 [3] of the same compound?
Answer: 6 µM

Question: What about the IC50 [4] of the same compound?
Answer: 100 µM

— patent US7045626B2, “Quinoline derivatives, process for preparing them and use for the treatment of diseases mediated by s-CD23” (SmithKline Beecham p.l.c., priority 2001, dated 2006)
